# Experimental data as given in patent US20070026431A1, “Modulation of MAPK-mediated phosphorylation and/or FBXW8-mediated ubiquitinylation of cyclin D1 in modulation of cellular proliferation” (priority 2005, published 2007).
# “Also recorded” adds a separate entry of the source.
# Assays:
# Type in all cases: cell-based, human
# GSK3α/β [1] = test: Phosphorylation-specific blot for GSK3α/β, SW480 cells; conditions: 24 hours of treatment
# [2] = test system: cyclin D1 protein (Thr286 phosphorylation); test: Western blot of total cyclin D1 and pThr286 in HCT 116 cells after U0126 or GSK3 inhibitor; conditions: cycling HCT 116; GSK3α/β inhibitor 24 hours
# Description: (§1) FIG. 11 illustrates that ERK/MAPK is identified as the major kinase that is responsible for the stability of cyclin D1 protein. Panels A-F: Pulse-chase analysis of cyclin D1 protein in HCT 116 cells after exposure to the MEK inhibitor U0126 (A-C) or the GSK3 inhibitor BIO (D-F). Exponentially growing HCT 116 cells were treated with either DMSO or 10 μM of U0126 (A-C) for 30 minutes, or DMSO or 5 μM of BIO (D-F) for 24 hours. Panels A and D: Cells were pulse-labeled with ^35S-methionine for 1 hour. Subsequently these cells were chased with cold methionine for the indicated times, and then lysed respectively. Cyclin D1 was immunoprecipitated and then analyzed with SDS-PAGE. Autoradiography was performed. Levels of metabolically labeled-cyclin D1 were estimated by quantitative scanning using the Quantity One (Bio-Rad) software and blotted on the graph to determine the half-life of cyclin D1. Panels B and E: Western blot analysis. The membrane was blotted with a cyclin D1 Thr286 phosphorylation specific (pThr286), total cyclin D1, a phosphorylation specific ERK, and total ERK antibodies (B), or a pThr286, cyclin D1, a GSKα/β phosphorylation specific, and GSK3β antibodies (E). Panels C and F: Cell cycle distributions were shown. Panel G: Western blot analysis following transfection of various forms of HA-tagged cyclin D1 expression vectors in both NIH 3T3 mouse fibroblast (left) and HCT 116 colon cancer (right) cells. In lane 5 and 10, cells were treated with 5 μM of BIO for further 24 hours following transfection of the ΔD CD1 mutant.
# Immunoblotting Analysis. […] SDS-PAGE was described previously (Tetsu and McCormick, 2003).
# To determine the contribution of ERK/MAPK to the stability of cyclin D1 in cancer cells, MAPK activity was inhibited with the MEK inhibitor U0126 (Favata et al., 1998. J Bio Chem. 273, 18623-32; Davies et al., 2000. Biochem J. 351, 95-105). Exponentially growing HCT 116 colon cancer cells were treated with U0126 for 30 minutes (FIG. 11, Panels A-C).
# In contrast, no effect on phosphorylation status and stability of cyclin D1 protein through inhibition of GSK3α/β ([…], Panels D-F) were detected. […] Cycling HCT 116 colon cancer cells were treated with BIO for 24 hours (FIG. 11, Panels D-F). A phosphorylation specific antibody to GSK3α and β was used to measure their endogenous activities because phosphorylations of GSK3α at Tyr279 and GSK3β at Tyr216 are intramolecular autophosphorylation events in the cells. Thus, phosphorylation status reflects their kinase activities (Cole et al., 2004. Biochem J. 377, 249-55).
# GSK3α/β [3] = test: Phosphorylation-specific blot for GSK3α/β, HCT 116 cells; conditions: BIO 24 hours
# Description: as §1, with “Panel G: Western blot analysis following transfection of various forms of HA-tagged cyclin D1 expression vectors in both NIH 3T3 mouse fibroblast (left) and HCT 116 colon cancer (right) cells. In lane 5 and 10, cells were treated with 5 μM of BIO for further 24 hours following transfection of the ΔD CD1 mutant.” left out
# In contrast, no effect on phosphorylation status and stability of cyclin D1 protein through inhibition of GSK3α/β (FIG. 14, Panels D-F) were detected. […]
# [4] = test system: cyclin D1 Thr286 phosphorylation; test: Thr286 phosphorylation of transfected ΔD cyclin D1 after BIO, HCT 116 cells; conditions: 5 μM BIO 24 hours after transfection
# Excerpt: FIG. 9 illustrates that MAPK directly binds to cyclin D1 through the MAPK docking site (D-domain) within cyclin D1 and phosphorylates it specifically at Thr286. Panel A: p42 ERK2-associated GST-cyclin D1 (CD1) in vitro kinase assays (upper panels). Purified ERK2 phosphorylates cyclin D1 in vitro. Immuno-blotting (IB) analyses stained with a GST antibody (lower panels) were provided as a reference to show loading conditions of various forms of GST-CD1 fusion proteins. (A) GST alone (lane 1), GST-human (h) CD1 amino acids (A.A.) from 165 to 295 (165-295, lane 2), GST-human (h) or mouse (m) CD1 A.A. from 255 to 295 (255-295, lane 3 and 4) were used. Panel B: Western blot analysis following transfection of various forms of HA-tagged cyclin D1 expression vectors in both NIH 3T3 mouse fibroblast (left) and HCT 116 colon cancer (right) cells. In lane 5 and 10, Cells were treated with 5 μM of a highly specific GSK3β inhibitor BIO for further 24 hours following transfcetion of the ΔD CD1 mutant.
# FIG. 11 illustrates that ERK/MAPK is identified as the major kinase that is responsible for the stability of cyclin D1 protein. […] Cyclin D1 was immunoprecipitated and then analyzed with SDS-PAGE. […] Levels of metabolically labeled-cyclin D1 were estimated by quantitative scanning using the Quantity One (Bio-Rad) software and blotted on the graph to determine the half-life of cyclin D1. […]
# cyclin D1 = test: Immunofluorescence, subcellular localization of cyclin D1 in HCT 116 cells; conditions: 5 μM BIO 24 hours, BrdU pulse
# Description: Panels A-C: Immunofluorescence analysis. Nuclei were visualized with Hoechst dye. […] Panel A: Subcellular localization of cyclin D1. […] Panel B: Subcellular localization of the E3 ligase. […] Panel D: Immunoprecipitated-immunoblotting analysis. Panel E: Cell cycle distributions.
# Immunofluorescence Analysis. Cultured cells on multiwell chamber slides (Nalge Nunc) were fixed with 4% paraformaldehyde in PBS and permeabilized in PBS containing 0.1% Triton X-100. Primary antibodies were diluted 1:100 in PBS containing 5% normal goat serum and applied for 2 hours. Proteins were detected either with mouse monoclonal antibodies or rabbit polyclonal antibodies followed by fluorescent substrate conjugated anti-mouse or anti-rabbit secondary antibody (Molecular Probes). For example, Cyclin D1 was detected either with mouse monoclonal cyclin D1 antibody (A-12, Santa Cruz) followed by fluorescent substrate conjugated anti-mouse or anti-rabbit secondary antibody (Molecular Probes). Nuclei were visualized using Hoechst 33258 (Molecular Probes). Fluorescence image was detected using LEICADMRD microscope (Leica).
# Exponentially growing HCT 116 colon cancer cells were treated with the GSK3 inhibitor BIO for 24 hours. […] The subcellular distribution of cyclin D1 was visualized under the microscope (FIG. 12, Panel A). […]
compound,measurement,setting,value
O=C1Nc2cc(Br)ccc2/C1=C1/Nc2ccccc2/C1=N\O [BIO],phosphorylated forms of GSK3α/β,GSK3α/β [1],disappeared
same,expression of total cyclin D1 and its phosphorylated protein,[2],no significant difference
same,phosphorylated forms of GSK3α/β,GSK3α/β [3],disappeared
same,phosphorylation status of cyclin D1 at Thr286 (ΔD mutant),[4],did not show any significant effect; also recorded: minimal effect
same,subcellular localization of cyclin D1,cyclin D1,no significant difference
